Data from patent US10258603B2 (priority 2014, dated 2019).

Target: T1, CECR2 (Homo sapiens, UniProt Q9BXF3)
T1 construct: 424-538 was cloned, expressed, and purified to homogeneity; Flag; made in house
Assay: CECR2 TR-FRET Binding Assay
Conditions: IC50 (uM)
Source text: IC50 Measurements for Inhibitors Using CECR2 TR-FRET Binding Assay

T1 sequence (Q9BXF3 424-538 limits assumed): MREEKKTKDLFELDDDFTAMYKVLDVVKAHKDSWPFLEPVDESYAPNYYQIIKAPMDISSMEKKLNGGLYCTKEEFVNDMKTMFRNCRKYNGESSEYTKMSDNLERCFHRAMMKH

IC50	SMILES
0.77 µM	CC(C)N1CCC(N(C)C(=O)c2cn(C)c(=O)c3[nH]ccc23)CC1 [Example 41, N-(1-isopropyl-4-piperidyl)-N,6-dimethyl-7-oxo-1H-pyrrolo[2,3-c]pyridine-4-carboxamide]
0.66 µM	CC(c1ccccc1)N1CCC(N(C)C(=O)c2cn(C)c(=O)c3[nH]ccc23)CC1 (centres unmarked) [Example 214]
0.042 µM	C=CCn1cc(C(=O)N(C)C2CCN(c3cc(-n4cccn4)ncn3)CC2)c2cc[nH]c2c1=O [Example 170, 6-allyl-N-methyl-7-oxo-N-[1-(6-pyrazol-1-ylpyrimidin-4-yl)-4-piperidyl]-1H-pyrrolo[2,3-c]pyridine-4-carboxamide]

Same assay, conditions: read-out: IC50

SMILES	IC50
CC(C)CN1CCC(N(C)C(=O)c2cn(C)c(=O)c3[nH]ccc23)CC1 [Example 207, N-(1-isobutyl-4-piperidyl)-N,6-dimethyl-7-oxo-1H-pyrrolo[2,3-c]pyridine-4-carboxamide]	0.81 µM
Cn1cc(C(=O)N2CCC(N3CCCC3)CC2)c2cc[nH]c2c1=O [Example 77, 6-methyl-4-(4-pyrrolidin-1-ylpiperidine-1-carbonyl)-1H-pyrrolo[2,3-c]pyridin-7-one]	2.7 µM
C=CCn1cc(C(=O)N(C)C2CCN(c3cc(C)nc(C4CC4)n3)CC2)c2cc(C)[nH]c2c1=O [Example 267, 6-allyl-N-(1-(2-cyclopropyl-6-methylpyrimidin-4-yl)piperidin-4-yl)-N,2-dimethyl-7-oxo-6,7-dihydro-1H-pyrrolo[2,3-c]pyridine-4-carboxamide]	0.017 µM
Cn1cc(C(=O)N2CCC(CCc3ccncc3)CC2)c2cc[nH]c2c1=O [Example 76, 6-methyl-4-[4-[2-(4-pyridyl)ethyl]piperidine-1-carbonyl]-1H-pyrrolo[2,3-c]pyridin-7-one]	0.35 µM
CCN(C(=O)c1cn(C)c(=O)c2[nH]ccc12)C1CCN(C(C)C)CC1 [Example 227]	2 µM
CCN1CCC(CCN(C)C(=O)c2cn(C)c(=O)c3[nH]ccc23)CC1 [Example 182]	0.41 µM
Cc1cccc(CN2CCC(CN(C)C(=O)c3cn(C)c(=O)c4[nH]ccc34)CC2)c1 [Example 204]	1.1 µM
C=CCn1cc(C(=O)N(C)C2CCCc3cc(OC)ccc32)c2cc(C)[nH]c2c1=O (single isomer, unassigned) [Example 281]	0.032 µM
CC1CCN(C(=O)c2cn(C)c(=O)c3[nH]ccc23)CC1 [Example 65, 6-methyl-4-(4-methylpiperidine-1-carbonyl)-1H-pyrrolo[2,3-c]pyridin-7-one]	1.4 µM
CN(C(=O)c1cn(C)c(=O)c2[nH]ccc12)C1CCN(c2ccccc2)CC1 [Example 172, N,6-dimethyl-7-oxo-N-(1-phenyl-4-piperidyl)-1H-pyrrolo[2,3-c]pyridine-4-carboxamide]	1 µM
C=CCn1cc(C(=O)N(C)C2CCCc3c(F)cccc32)c2cc(C)[nH]c2c1=O (single isomer, unassigned) [Example 286]	0.041 µM
Cn1cc(C(=O)N2CCC(N3CCCCC3)CC2)c2cc[nH]c2c1=O [Example 59, 6-methyl-4-[4-(1-piperidyl)piperidine-1-carbonyl]-1H-pyrrolo[2,3-c]pyridin-7-one]	0.89 µM
Cn1cc(C(=O)N2CCC(Cc3ccc(F)cc3)CC2)c2cc[nH]c2c1=O [Example 69, 4-[4-[(4-fluorophenyl)methyl]piperidine-1-carbonyl]-6-methyl-1H-pyrrolo[2,3-c]pyridin-7-one]	0.45 µM
CN(CC1CCN(c2ccncn2)CC1)C(=O)c1cn(C)c(=O)c2[nH]ccc12 [Example 158, N,6-dimethyl-7-oxo-N-[(1-pyrimidin-4-yl-4-piperidyl)methyl]-1H-pyrrolo[2,3-c]pyridine-4-carboxamide]	0.79 µM
Cc1cccc(N2CCC(N(C)C(=O)c3cn(C)c(=O)c4[nH]ccc34)CC2)c1 [Example 173, N,6-dimethyl-N-[1-(m-tolyl)-4-piperidyl]-7-oxo-1H-pyrrolo[2,3-c]pyridine-4-carboxamide]	0.99 µM

Further lines, results first:

IC50	SMILES
1.8 µM	CC1CCCCN1CCCNC(=O)c1cn(C)c(=O)c2[nH]ccc12 (centres unmarked) [Example 29, 6-methyl-N-[3-(2-methyl-1-piperidyl)propyl]-7-oxo-1H-pyrrolo[2,3-c]pyridine-4-carboxamide]
1 µM	CN1CCN(C2CCN(C(=O)c3cn(C)c(=O)c4[nH]ccc34)CC2)CC1 [Example 61, 6-methyl-4-[4-(4-methylpiperazin-1-yl)piperidine-1-carbonyl]-1H-pyrrolo[2,3-c]pyridin-7-one]
0.041 µM	C=CCn1cc(C(=O)N(C)C2CCCc3c(OC)cccc32)c2cc(C)[nH]c2c1=O (single isomer, unassigned) [Example 288]
0.045 µM	C=CCn1cc(C(=O)N(C)C2CCCc3c(OC)cccc32)c2cc(C)[nH]c2c1=O (single isomer, unassigned) [Example 289]
2 µM	CC(C)N1CCC(N(C(=O)c2cn(C)c(=O)c3[nH]ccc23)C2CC2)CC1 [Example 243]
0.39 µM	CN(C(=O)c1cn(C)c(=O)c2[nH]ccc12)C1CCN(c2ncc(C#N)cn2)CC1 [Example 141, N-[1-(5-cyanopyrimidin-2-yl)-4-piperidyl]-N,6-dimethyl-7-oxo-1H-pyrrolo[2,3-c]pyridine-4-carboxamide]
1.3 µM	CN(CC1CCN(Cc2cccc(F)c2)CC1)C(=O)c1cn(C)c(=O)c2[nH]ccc12 [Example 202]
0.067 µM	C=CCn1cc(C(=O)N(C)C2CCCc3cc(OC)ccc32)c2cc(C)[nH]c2c1=O (single isomer, unassigned) [Example 282]
0.77 µM	CN(CC1CCN(CC2CCC2)CC1)C(=O)c1cn(C)c(=O)c2[nH]ccc12 [Example 233]
0.24 µM	CN(C(=O)c1cn(C)c(=O)c2[nH]ccc12)C1CCN(c2ccncn2)CC1 [Example 139, N,6-dimethyl-7-oxo-N-(1-pyrimidin-4-yl-4-piperidyl)-1H-pyrrolo[2,3-c]pyridine-4-carboxamide]
1.4 µM	COCCN1CCC(N(C)C(=O)c2cn(C)c(=O)c3[nH]ccc23)CC1 [Example 225]
0.49 µM	CC(C)N1CCC(CCN(C)C(=O)c2cn(C)c(=O)c3[nH]ccc23)CC1 [Example 183]
3.8 µM	Cn1cc(C(=O)NCCN2CCC(O)CC2)c2cc[nH]c2c1=O [Example 30, N-[2-(4-hydroxy-1-piperidyl)ethyl]-6-methyl-7-oxo-1H-pyrrolo[2,3-c]pyridine-4-carboxamide]
4.9 µM	C=CCn1cc(C(=O)N2CCN(c3ccc(F)cc3)CC2C(N)=O)c2cc(C)[nH]c2c1=O (single isomer, unassigned) [Example 273, 1-(6-allyl-2-methyl-7-oxo-6,7-dihydro-1H-pyrrolo[2,3-c]pyridine-4-carbonyl)-4-(4-fluorophenyl)piperazine-2-carboxamide]
1 µM	CN(CC1CCN(CC2CCOCC2)CC1)C(=O)c1cn(C)c(=O)c2[nH]ccc12 [Example 234]
0.97 µM	CN(C(=O)c1cn(C)c(=O)c2[nH]ccc12)C1CCN(Cc2ccccc2Cl)CC1 [Example 223]
2.2 µM	COCC1CCN(C(=O)c2cn(C)c(=O)c3[nH]ccc23)CC1 [Example 72, 4-[4-(methoxymethyl)piperidine-1-carbonyl]-6-methyl-1H-pyrrolo[2,3-c]pyridin-7-one]
